Results published in PubChem BioAssay AID1745844 (Carcinogenic Potency Database (CPDB), 2022).
Active and inactive are the calls of the source. The rule behind the calls is not given here.

Test system: rodent lifetime carcinogenesis bioassay, tumor incidence TD50
Assay: chronic cancer bioassays in animals – CPDB, compiled studies (AID 1745844)

Structure (SMILES): C[C@@H]1O[C@@H](OC[C@H]2O[C@@H](Oc3c(-c4ccc(O)c(O)c4)oc4cc(O)cc(O)c4c3=O)[C@H](O)[C@@H](O)[C@@H]2O)[C@H](O)[C@H](O)[C@H]1O
- TD50 (hamster, strain Syrian Golden, females, in feed, site: adrenal gland, lesion: cortical adenoma, dosed 104 weeks, study length 104 weeks): 132000 mg/kg/day (inactive)
- TD50 (hamster, strain Syrian Golden, females, in feed, site: uterus, lesion: leiomyoma, dosed 104 weeks, study length 104 weeks): 140000 mg/kg/day (inactive)
- carcinogen call (hamster, strain Syrian Golden, males, in feed, site: adrenal gland, lesion: cortical adenoma, dosed 104 weeks, study length 104 weeks): negative (inactive)
- carcinogen call (hamster, strain Syrian Golden, males, in feed, site: forestomach, lesion: papilloma, dosed 104 weeks, study length 104 weeks): negative (inactive)
- TD50 (rat, strain ACI, females, in feed, site: adrenal gland, lesion: pheochromocytoma, dosed 121 weeks, study length 121 weeks): 90400 mg/kg/day (inactive)
- TD50 (rat, strain ACI, females, in feed, site: heart, lesion: sarcoma, dosed 121 weeks, study length 121 weeks): 90400 mg/kg/day (inactive)
- TD50 (rat, strain ACI, females, in feed, site: pituitary gland, lesion: adenoma, dosed 77 weeks, study length 77 weeks): 8910 mg/kg/day (inactive)
- TD50 (rat, strain ACI, females, in feed, site: urinary bladder, lesion: papilloma, dosed 77 weeks, study length 77 weeks): 8910 mg/kg/day (inactive)
- TD50 (rat, strain ACI, males, in feed, site: adrenal gland, lesion: cortical adenoma, dosed 77 weeks, study length 77 weeks): 5710 mg/kg/day (inactive)
- TD50 (rat, strain ACI, males, in feed, site: colon, lesion: adenoma, dosed 121 weeks, study length 121 weeks): 72300 mg/kg/day (inactive)
- TD50 (rat, strain ACI, males, in feed, site: ileum, lesion: adenoma, dosed 121 weeks, study length 121 weeks): 72300 mg/kg/day (inactive)
- TD50 (rat, strain ACI, males, in feed, site: testis, lesion: interstitial-cell tumor, dosed 77 weeks, study length 77 weeks): 3530 mg/kg/day (inactive)
- TD50 (rat, strain Sprague-Dawley, females, by gavage, site: liver, lesion: hepatocellular carcinoma, dosed 104 weeks, study length 138 weeks): 44800 mg/kg/day (inactive)
- carcinogen call (rat, strain Sprague-Dawley, males, by gavage, site: liver, lesion: hepatocellular carcinoma, dosed 104 weeks, study length 134 weeks): negative (inactive)

Structure (SMILES): O=NN1CCC(=O)NC1=O
- TD50 (rat, strain MRC-Wistar, females, in drinking water, site: any site (literature study), lesion: several types, types named in the paper, dosed 41 weeks, study length 70 weeks): 0.13 mg/kg/day
- TD50 (rat, strain MRC-Wistar, females, in drinking water, site: liver, lesion: hepatocellular carcinoma, dosed 41 weeks, study length 70 weeks): 0.104 mg/kg/day
- TD50 (rat, strain MRC-Wistar, females, in drinking water, site: liver, lesion: several types, types named in the paper, dosed 41 weeks, study length 70 weeks): 0.104 mg/kg/day
- TD50 (rat, strain MRC-Wistar, males, in drinking water, site: any site (literature study), lesion: several types, types named in the paper, dosed 41 weeks, study length 70 weeks): 0.125 mg/kg/day
- TD50 (rat, strain MRC-Wistar, males, in drinking water, site: liver, lesion: hepatocellular carcinoma, dosed 41 weeks, study length 70 weeks): 0.0932 mg/kg/day
- TD50 (rat, strain MRC-Wistar, males, in drinking water, site: liver, lesion: several types, types named in the paper, dosed 41 weeks, study length 70 weeks): 0.0932 mg/kg/day

Structure (SMILES): COc1cc2c(cc1N)oc1ccccc12
- TD50 (rat, strain Fischer, females, in feed, site: any site (literature study), lesion: malignant tumor, dosed 75 weeks, study length 75 weeks): 33.1 mg/kg/day
- TD50 (rat, strain Fischer, females, in feed, site: external auditory canal, lesion: squamous-cell carcinoma, dosed 75 weeks, study length 75 weeks): 43.9 mg/kg/day
- TD50 (rat, strain Fischer, females, in feed, site: mammary gland, lesion: adenocarcinoma, dosed 75 weeks, study length 75 weeks): 205 mg/kg/day
- TD50 (rat, strain Fischer, females, in feed, site: urinary bladder, lesion: several types, types named in the paper, dosed 75 weeks, study length 75 weeks): 25.7 mg/kg/day
- TD50 (rat, strain Fischer, females, in feed, site: urinary bladder, lesion: transitional-cell carcinoma, dosed 75 weeks, study length 75 weeks): 43.9 mg/kg/day
- TD50 (rat, strain Fischer, males, in feed, site: any site (literature study), lesion: malignant tumor, dosed 75 weeks, study length 75 weeks): 78.2 mg/kg/day
- TD50 (rat, strain Fischer, males, in feed, site: external auditory canal, lesion: squamous-cell carcinoma, dosed 75 weeks, study length 75 weeks): 78.2 mg/kg/day
- TD50 (rat, strain Fischer, males, in feed, site: urinary bladder, lesion: several types, types named in the paper, dosed 75 weeks, study length 75 weeks): 26.4 mg/kg/day
- TD50 (rat, strain Fischer, males, in feed, site: urinary bladder, lesion: transitional-cell carcinoma, dosed 75 weeks, study length 75 weeks): 78.2 mg/kg/day
- TD50 (rat, strain Sprague-Dawley, females, in feed, site: any site (literature study), lesion: malignant tumor, dosed 75 weeks, study length 75 weeks): 25.7 mg/kg/day
- TD50 (rat, strain Sprague-Dawley, females, in feed, site: external auditory canal, lesion: squamous-cell carcinoma, dosed 75 weeks, study length 75 weeks): 61.9 mg/kg/day
- TD50 (rat, strain Sprague-Dawley, females, in feed, site: mammary gland, lesion: adenocarcinoma, dosed 75 weeks, study length 75 weeks): 61.9 mg/kg/day
- TD50 (rat, strain Sprague-Dawley, females, in feed, site: urinary bladder, lesion: several types, types named in the paper, dosed 75 weeks, study length 75 weeks): 43.9 mg/kg/day
- TD50 (rat, strain Sprague-Dawley, females, in feed, site: urinary bladder, lesion: transitional-cell carcinoma, dosed 75 weeks, study length 75 weeks): 205 mg/kg/day
- TD50 (rat, strain Sprague-Dawley, males, in feed, site: any site (literature study), lesion: malignant tumor, dosed 75 weeks, study length 75 weeks): 78.2 mg/kg/day
- TD50 (rat, strain Sprague-Dawley, males, in feed, site: kidney, lesion: squamous-cell carcinoma, dosed 75 weeks, study length 75 weeks): 164 mg/kg/day
- TD50 (rat, strain Sprague-Dawley, males, in feed, site: urinary bladder, lesion: transitional-cell papilloma, dosed 75 weeks, study length 75 weeks): 164 mg/kg/day
- TD50 (rat, strain Wistar, females, in feed, site: any site (literature study), lesion: malignant tumor, dosed 75 weeks, study length 75 weeks): 43.9 mg/kg/day
- TD50 (rat, strain Wistar, females, in feed, site: liver, lesion: cystadenoma, dosed 75 weeks, study length 75 weeks): 205 mg/kg/day
- TD50 (rat, strain Wistar, females, in feed, site: mammary gland, lesion: adenocarcinoma, dosed 75 weeks, study length 75 weeks): 97.7 mg/kg/day
- TD50 (rat, strain Wistar, females, in feed, site: urinary bladder, lesion: several types, types named in the paper, dosed 75 weeks, study length 75 weeks): 43.9 mg/kg/day
- TD50 (rat, strain Wistar, females, in feed, site: urinary bladder, lesion: transitional-cell carcinoma, dosed 75 weeks, study length 75 weeks): 97.7 mg/kg/day
- TD50 (rat, strain Wistar, males, in feed, site: any site (literature study), lesion: benign tumor, dosed 84 weeks, study length 84 weeks): 53.3 mg/kg/day
- TD50 (rat, strain Wistar, males, in feed, site: any site (literature study), lesion: malignant tumor, dosed 75 weeks, study length 75 weeks): 26.4 mg/kg/day
- carcinogen call (rat, strain Wistar, males, in feed, site: any site (literature study), lesion: malignant tumor, dosed 84 weeks, study length 84 weeks): positive
- TD50 (rat, strain Wistar, males, in feed, site: external auditory canal, lesion: squamous-cell carcinoma, dosed 75 weeks, study length 75 weeks): 78.2 mg/kg/day
- TD50 (rat, strain Wistar, males, in feed, site: kidney, lesion: squamous-cell carcinoma, dosed 75 weeks, study length 75 weeks): 164 mg/kg/day
- TD50 (rat, strain Wistar, males, in feed, site: urinary bladder, lesion: several types, types named in the paper, dosed 75 weeks, study length 75 weeks): 35.2 mg/kg/day
- carcinogen call (rat, strain Wistar, males, in feed, site: urinary bladder, lesion: several types, types named in the paper, dosed 84 weeks, study length 84 weeks): positive
- TD50 (rat, strain Wistar, males, in feed, site: urinary bladder, lesion: transitional-cell carcinoma, dosed 75 weeks, study length 75 weeks): 78.2 mg/kg/day

Structure (SMILES): S=C(S)NCCNC(=S)S
- carcinogen call (mouse, strain B6AKF1, females, oral dosing, site: any site (literature study), lesion: several types, types named in the paper, dosed 76 weeks, study length 76 weeks): negative (inactive)
- carcinogen call (mouse, strain B6AKF1, females, oral dosing, site: liver, lesion: hepatoma, dosed 76 weeks, study length 76 weeks): negative (inactive)
- carcinogen call (mouse, strain B6AKF1, females, oral dosing, site: lung, lesion: several types, types named in the paper, dosed 76 weeks, study length 76 weeks): negative (inactive)
- carcinogen call (mouse, strain B6AKF1, males, oral dosing, site: any site (literature study), lesion: several types, types named in the paper, dosed 76 weeks, study length 76 weeks): negative (inactive)
- carcinogen call (mouse, strain B6AKF1, males, oral dosing, site: liver, lesion: hepatoma, dosed 76 weeks, study length 76 weeks): negative (inactive)
- carcinogen call (mouse, strain B6AKF1, males, oral dosing, site: lung, lesion: adenoma, dosed 76 weeks, study length 76 weeks): negative (inactive)
- carcinogen call (mouse, strain B6C3F1, females, oral dosing, site: any site (literature study), lesion: several types, types named in the paper, dosed 76 weeks, study length 76 weeks): negative (inactive)
- carcinogen call (mouse, strain B6C3F1, females, oral dosing, site: liver, lesion: hepatoma, dosed 76 weeks, study length 76 weeks): negative (inactive)
- carcinogen call (mouse, strain B6C3F1, females, oral dosing, site: lung, lesion: adenoma, dosed 76 weeks, study length 76 weeks): negative (inactive)
- carcinogen call (mouse, strain B6C3F1, males, oral dosing, site: any site (literature study), lesion: several types, types named in the paper, dosed 76 weeks, study length 76 weeks): negative (inactive)
- TD50 (mouse, strain B6C3F1, males, oral dosing, site: liver, lesion: hepatoma, dosed 76 weeks, study length 76 weeks): 866 mg/kg/day (inactive)
- carcinogen call (mouse, strain B6C3F1, males, oral dosing, site: lung, lesion: adenoma, dosed 76 weeks, study length 76 weeks): negative (inactive)

Structure (SMILES): CC(Cl)CCl (centres undefined)
- TD50 (mouse, strain B6C3F1, females, by gavage, site: any site (literature study), lesion: several types, types named in the paper, dosed 103 weeks, study length 105 weeks): 341 mg/kg/day
- TD50 (mouse, strain B6C3F1, females, by gavage, site: forestomach, lesion: squamous-cell carcinoma + squamous-cell papilloma, dosed 103 weeks, study length 105 weeks): 1020 mg/kg/day
- TD50 (mouse, strain B6C3F1, females, by gavage, site: liver, lesion: hepatocellular adenoma + hepatocellular carcinoma + neoplastic nodule, dosed 103 weeks, study length 105 weeks): 346 mg/kg/day
- TD50 (mouse, strain B6C3F1, females, by gavage, site: liver, lesion: hepatocellular adenoma + hepatocellular carcinoma, dosed 103 weeks, study length 105 weeks): 346 mg/kg/day
- TD50 (mouse, strain B6C3F1, females, by gavage, site: liver, lesion: hepatocellular adenoma, dosed 103 weeks, study length 105 weeks): 562 mg/kg/day
- TD50 (mouse, strain B6C3F1, males, by gavage, site: any site (literature study), lesion: several types, types named in the paper, dosed 103 weeks, study length 105 weeks): 397 mg/kg/day
- TD50 (mouse, strain B6C3F1, males, by gavage, site: forestomach, lesion: squamous-cell papilloma, dosed 103 weeks, study length 105 weeks): 1520 mg/kg/day
- TD50 (mouse, strain B6C3F1, males, by gavage, site: liver, lesion: hepatocellular adenoma + hepatocellular carcinoma + neoplastic nodule, dosed 103 weeks, study length 105 weeks): 229 mg/kg/day
- TD50 (mouse, strain B6C3F1, males, by gavage, site: liver, lesion: hepatocellular adenoma + hepatocellular carcinoma, dosed 103 weeks, study length 105 weeks): 229 mg/kg/day
- TD50 (mouse, strain B6C3F1, males, by gavage, site: liver, lesion: hepatocellular adenoma, dosed 103 weeks, study length 105 weeks): 384 mg/kg/day
- TD50 (mouse, strain B6C3F1, males, by gavage, site: lung, lesion: alveolar/bronchiolar adenoma + alveolar/bronchiolar carcinoma, dosed 103 weeks, study length 105 weeks): 5070 mg/kg/day
- TD50 (rat, strain Fischer 344, females, by gavage, site: any site (literature study), lesion: several types, types named in the paper, dosed 103 weeks, study length 105 weeks): 240 mg/kg/day
- TD50 (rat, strain Fischer 344, females, by gavage, site: mammary gland, lesion: adenocarcinoma, NOS, dosed 103 weeks, study length 105 weeks): 767 mg/kg/day
- TD50 (rat, strain Fischer 344, males, by gavage, site: any site (literature study), lesion: several types, types named in the paper, dosed 103 weeks, study length 106 weeks): 69.7 mg/kg/day (inactive)
- TD50 (rat, strain Fischer 344, males, by gavage, site: liver, lesion: hepatocellular adenoma + hepatocellular carcinoma + neoplastic nodule, dosed 103 weeks, study length 106 weeks): 2570 mg/kg/day

Structure (SMILES): CC(Oc1c(Cl)cccc1Cl)C1=NCCN1 (centres undefined)
- TD50 (rat, strain Long-Evans, females, in feed, site: any site (literature study), lesion: one or several types, types not named, dosed 52 weeks, study length 52 weeks): 2.3 mg/kg/day (inactive)
- TD50 (rat, strain Long-Evans, males, in feed, site: any site (literature study), lesion: one or several types, types not named, dosed 52 weeks, study length 52 weeks): 2.3 mg/kg/day (inactive)
